Consider 31 compounds from patent US9511058B2, “Methods for using carboxamide, sulfonamide and amine compounds” (Rigel Pharmaceuticals, Inc., priority 2010, dated 2016).

One may read the EC50 as the midpoint of the concentration-response curve.

Where only a bound is given, the exact number is not on record here.

One assay concerns the target AMPK. Kind of assay: AMPK activation, enzyme-linked immunosorbent assay. In kind it is biochemical. The conditions noted are these: compounds of Table 1 (Table 6).
`O=C(N[C@H]1CCNC1)c1cc2cc(OC3CCN(Cc4ccc(Cl)cc4)CC3)ccc2o1` [1-128, (S)-5-(1-(4-chlorobenzyl)piperidin-4-yloxy)-N-(pyrrolidin-3-yl)benzofuran-2-carboxamide] showed an EC50 above 10 µM.
The compound `O=C(N[C@H]1CCN(Cc2ccncc2)C1)c1cc2cc(OC3CCN(Cc4ccc(Cl)cc4)CC3)ccc2o1` [1-129, (S)-5-(1-(4-chlorobenzyl)piperidin-4-yloxy)-N-(1-(pyridin-4-ylmethyl)pyrrolidin-3-yl)benzofuran-2-carboxamide] displayed a concentration for a half-maximal effect (EC50) of 1 to 5 µM.
On the same count and under the same terms, next, `O=C(N[C@H]1CCN(Cc2cccnc2)C1)c1cc2cc(OC3CCN(Cc4ccc(Cl)cc4)CC3)ccc2o1` [1-130, (S)-5-(1-(4-chlorobenzyl)piperidin-4-yloxy)-N-(1-(pyridin-3-ylmethyl)pyrrolidin-3-yl)benzofuran-2-carboxamide]: 1 to 5 µM; `NC(=O)c1ccc(CN2CCC(Oc3ccc4oc(C(=O)NC5CCN(Cc6ccncc6)CC5)cc4c3)CC2)cc1` [1-131, 5-(1-(4-carbamoylbenzyl)piperidin-4-yloxy)-N-(1-(pyridin-4-ylmethyl)piperidin-4-yl)benzofuran-2-carboxamide]: 1 to 5 µM; `O=C(NC1CCN(Cc2ccncc2)CC1)c1cc2cc(OC3CCN(c4ccc(OC(F)(F)F)cc4)CC3)ccc2s1` [1-137, N-(1-(pyridin-4-ylmethyl)piperidin-4-yl)-5-(1-(4-(trifluoromethoxy)phenyl)piperidin-4-yloxy)benzo[b]thiophene-2-carboxamide]: below 0.1 µM.
`O=C(NC1CCN(Cc2ccncc2)CC1)c1cc2cc(OC3CCN(c4ccc(C(F)(F)F)cc4)CC3)ccc2s1` [1-138, N-(1-(pyridin-4-ylmethyl)piperidin-4-yl)-5-(1-(4-(trifluoromethyl)phenyl)piperidin-4-yloxy)benzo[b]thiophene-2-carboxamide]: the 50% effective concentration (EC50) was below 0.1 µM.
Consider `CC(C)(C)OC(=O)N1CCC(NC(=O)c2cc3ccc(OC4CCN(c5ccc(C(F)(F)F)cc5)CC4)cc3s2)CC1` [1-140, tert-butyl 4-(6-(1-(4-(trifluoromethyl)phenyl)piperidin-4-yloxy)benzo[b]thiophene-2-carboxamido)piperidine-1-carboxylate], for which the EC50 was 0.5 to 1 µM.
On the same count and under the same terms, next, `O=C(NC1CCNCC1)c1cc2ccc(OC3CCN(c4ccc(C(F)(F)F)cc4)CC3)cc2s1` [1-141, N-(piperidin-4-yl)-6-(1-(4-(trifluoromethyl)phenyl)piperidin-4-yloxy)benzo[b]thiophene-2-carboxamide]: 0.1 to 0.5 µM; `N#Cc1ccc(CN2CCC(NC(=O)c3cc4ccc(OC5CCN(c6ccc(C(F)(F)F)cc6)CC5)cc4s3)CC2)cc1` [1-144, N-(1-(4-cyanobenzyl)piperidin-4-yl)-6-(1-(4-(trifluoromethyl)phenyl)piperidin-4-yloxy)benzo[b]thiophene-2-carboxamide]: below 0.1 µM; `N#Cc1cccc(CN2CCC(NC(=O)c3cc4ccc(OC5CCN(c6ccc(C(F)(F)F)cc6)CC5)cc4s3)CC2)c1` [1-145, N-(1-(3-cyanobenzyl)piperidin-4-yl)-6-(1-(4-(trifluoromethyl)phenyl)piperidin-4-yloxy)benzo[b]thiophene-2-carboxamide]: 0.1 to 0.5 µM.
On the same count and under the same terms, next, `N#Cc1ccccc1CN1CCC(NC(=O)c2cc3ccc(OC4CCN(c5ccc(C(F)(F)F)cc5)CC4)cc3s2)CC1` [1-146, N-(1-(2-cyanobenzyl)piperidin-4-yl)-6-(1-(4-(trifluoromethyl)phenyl)piperidin-4-yloxy)benzo[b]thiophene-2-carboxamide]: 0.1 to 0.5 µM.
On the same count and under the same terms, next, `CC(C)(C)OC(=O)N1CCC(NC(=O)c2sc3cc(OC4CCN(c5ccc(C(F)(F)F)cc5)CC4)ccc3c2Cl)CC1` [1-147, tert-butyl 4-(3-chloro-6-(1-(4-(trifluoromethyl)phenyl)piperidin-4-yloxy)benzo[b]thiophene-2-carboxamido)piperidine-1-carboxylate]: 1 to 5 µM.
`O=C(NC1CCNCC1)c1sc2cc(OC3CCN(c4ccc(C(F)(F)F)cc4)CC3)ccc2c1Cl` [1-148, 3-chloro-N-(piperidin-4-yl)-6-(1-(4-(trifluoromethyl)phenyl)piperidin-4-yloxy)benzo[b]thiophene-2-carboxamide] had an EC50 above 10 µM.
Same read-out and setting: next, `CC(C)(C)OC(=O)N1CCC(NC(=O)c2cc3cc(OC4CCN(c5ccc(C(F)(F)F)cc5)CC4)ccc3s2)CC1` [1-149, tert-butyl 4-(5-(1-(4-(trifluoromethyl)phenyl)piperidin-4-yloxy)benzo[b]thiophene-2-carboxamido)piperidine-1-carboxylate]: below 0.1 µM.
The same measure, in the same setting: next, `O=C(NC1CCNCC1)c1cc2cc(OC3CCN(c4ccc(C(F)(F)F)cc4)CC3)ccc2s1` [1-150, N-(piperidin-4-yl)-5-(1-(4-(trifluoromethyl)phenyl)piperidin-4-yloxy)benzo[b]thiophene-2-carboxamide]: 1 to 5 µM; `O=C(NC1CCN(Cc2ccncc2)CC1)c1sc2cc(OC3CCN(c4ccc(C(F)(F)F)cc4)CC3)ccc2c1Cl` [1-151, 3-chloro-N-(1-(pyridin-4-ylmethyl)piperidin-4-yl)-6-(1-(4-(trifluoromethyl)phenyl)piperidin-4-yloxy)benzo[b]thiophene-2-carboxamide]: below 0.1 µM; `O=C(NC1CCN(Cc2cccnc2)CC1)c1sc2cc(OC3CCN(c4ccc(C(F)(F)F)cc4)CC3)ccc2c1Cl` [1-152, 3-chloro-N-(1-(pyridin-3-ylmethyl)piperidin-4-yl)-6-(1-(4-(trifluoromethyl)phenyl)piperidin-4-yloxy)benzo[b]thiophene-2-carboxamide]: below 0.1 µM.
The same measure, in the same setting: next, `O=C(NC1CCN(Cc2ccccn2)CC1)c1sc2cc(OC3CCN(c4ccc(C(F)(F)F)cc4)CC3)ccc2c1Cl` [1-153, 3-chloro-N-(1-(pyridin-2-ylmethyl)piperidin-4-yl)-6-(1-(4-(trifluoromethyl)phenyl)piperidin-4-yloxy)benzo[b]thiophene-2-carboxamide]: 0.1 to 0.5 µM.
On to `N#Cc1ccc(CN2CCC(NC(=O)c3sc4cc(OC5CCN(c6ccc(C(F)(F)F)cc6)CC5)ccc4c3Cl)CC2)cc1` [1-154, 3-chloro-N-(1-(4-cyanobenzyl)piperidin-4-yl)-6-(1-(4-(trifluoromethyl)phenyl)piperidin-4-yloxy)benzo[b]thiophene-2-carboxamide], for which the EC50 was below 0.1 µM.
For the compound `CC(C)(C)OC(=O)N1CCC(NC2CCc3cc(OC4CCN(c5ccc(C(F)(F)F)cc5)CC4)ccc32)CC1` (stereo not shown) [1-156, tert-butyl 4-(5-(1-(4-(trifluoromethyl)phenyl)piperidin-4-yloxy)-2,3-dihydro-1H-inden-1-ylamino)piperidine-1-carboxylate], the EC50 lay in the range of 0.1 to 0.5 µM.
The same measure, in the same setting: next, `FC(F)(F)c1ccc(N2CCC(Oc3ccc4c(c3)CCC4NC3CCNCC3)CC2)cc1` (stereo not shown) [1-157, N-(5-(1-(4-(trifluoromethyl)phenyl)piperidin-4-yloxy)-2,3-dihydro-1H-inden-1-yl)piperidin-4-amine]: 1 to 5 µM; `FC(F)(F)c1ccc(N2CCC(Oc3ccc4c(c3)CCC4NC3CCN(Cc4ccncc4)CC3)CC2)cc1` (stereo not shown) [1-158, 1-(pyridin-4-ylmethyl)-N-(5-(1-(4-(trifluoromethyl)phenyl)piperidin-4-yloxy)-2,3-dihydro-1H-inden-1-yl)piperidin-4-amine]: 0.1 to 0.5 µM; `Fc1ccc(CN2CCC(NC3CCc4cc(OC5CCN(c6ccc(C(F)(F)F)cc6)CC5)ccc43)CC2)cc1` (stereo not shown) [1-159, 1-(4-fluorobenzyl)-N-(5-(1-(4-(trifluoromethyl)phenyl)piperidin-4-yloxy)-2,3-dihydro-1H-inden-1-yl)piperidin-4-amine]: 0.1 to 0.5 µM.
The same measure, in the same setting: next, `N#Cc1ccc(CN2CCC(NC3CCc4cc(OC5CCN(c6ccc(C(F)(F)F)cc6)CC5)ccc43)CC2)cc1` (stereo not shown) [1-160, 4-((4-(5-(1-(4-(trifluoromethyl)phenyl)piperidin-4-yloxy)-2,3-dihydro-1H-inden-1-ylamino)piperidin-1-yl)methyl)benzonitrile]: below 0.1 µM.

The same assay, now with this note: compounds of Table 2 (Table 7).
Turning to `N#Cc1ccc(CN2CCC(NC(=O)c3ccc4[nH]c5c(c4c3)CN(C(=O)OCc3ccccc3)CC5)CC2)cc1` [2-1, benzyl 8-(1-(4-cyanobenzyl)piperidin-4-ylcarbamoyl)-3,4-dihydro-1H-pyrido[4,3-b]indole-2(5H)-carboxylate], the EC50 was in the range of 1 to 5 µM.
As to `O=C(NC1CCN(Cc2ccccc2)CC1)c1ccc2[nH]c3c(c2c1)CN(C(=O)OCc1ccccc1)CC3` [2-2, benzyl 8-(1-(4-benzyl)piperidin-4-ylcarbamoyl)-3,4-dihydro-1H-pyrido[4,3-b]indole-2(5H)-carboxylate], the EC50 is 10 to 50 µM.
The same measure, in the same setting: next, `CC(C)(C)OC(=O)N1CCC(NC(=O)c2ccc3[nH]c4c(c3c2)CN(C(=O)OCc2ccccc2)CC4)CC1` [2-3, benzyl 8-(1-(tert-butoxycarbonyl)piperidin-4-ylcarbamoyl)-3,4-dihydro-1H-pyrido[4,3-b]indole-2(5H)-carboxylate]: 10 to 50 µM.
Same read-out and setting: next, `N#Cc1ccc(CN2CCC(NC(=O)c3ccc4[nH]c5c(c4c3)CN(Cc3ccccc3)CC5)CC2)cc1` [2-4, 2-benzyl-N-(1-(4-cyanobenzyl)piperidin-4-yl)-2,3,4,5-tetrahydro-1H-pyrido[4,3-b]indole-8-carboxamide]: 1 to 5 µM; `O=C(NC1CCN(Cc2ccc(C(F)(F)F)cc2)CC1)c1ccc2[nH]c3c(c2c1)CN(Cc1ccccc1)CC3` [2-5, 2-benzyl-N-(1-(4-trifluoromethylbenzyl)piperidin-4-yl)-2,3,4,5-tetrahydro-1H-pyrido[4,3-b]indole-8-carboxamide]: 1 to 5 µM.
The compound `CC(C)(C)OC(=O)N1CCC(NC(=O)c2ccc3[nH]c4c(c3c2)CN(Cc2ccc(C(F)(F)F)cc2)CC4)CC1` [2-6, tert-butyl 4-(2-(4-(trifluoromethyl)benzyl)-2,3,4,5-tetrahydro-1H-pyrido[4,3-b]indole-8-carboxamido) piperidine-1-carboxylate] showed a concentration giving a half-maximal response (EC50) of 0.5 to 1 µM.
Compound `O=C(NC1CCN(Cc2ccncc2)CC1)c1ccc2[nH]c3c(c2c1)CN(Cc1ccccc1)CC3` [2-7, 2-benzyl-N-(1-(pyridin-4-ylmethyl)piperidin-4-yl)-2,3,4,5-tetrahydro-1H-pyrido[4,3-b]indole-8-carboxamide] yielded a concentration for a half-maximal effect (EC50) of 5 to 10 µM.
